Reference: US4198405A, “Prostaglandine derivatives” (priority 1978, dated 1980)
Entries after “also recorded” stand apart in the source; their conditions may differ.

Assays:
[1] = tested on: ICR-JCL mice of the sixth day of pregnancy; test: Test of abortion by subcutaneous injection, 4 days (Table 2); type: in vivo; conditions: s.c. once a day
Description: (§1) The continuous administrations were applied to ICR-JCL mice of the sixth day of pregnancy (5 mice as one group) to examine the efficiency of the abortion obtained by the drugs of this invention in comparison with that of PGF2 α. After 0.2 ml of 5% ethanol-saline solution containing the […], the […] or PGF2 α was given to the mice once a day during 4 days by intravenous injection and subcutaneous injection at some dose, their breeding were continued to confirm the abortion of the group administrated with the drugs until the partus of the control group administrated with only ethanol saline solution.

ICR-JCL female mice = test: Acute toxicity (LD50), intravenous injection; type: in vivo; conditions: for abnormality observed / survival of mice (acute toxicity): 400 mg/kg; for survival of mice (acute toxicity): 10 mice; for LD50 (in words): 7 days, Litchfield-Wilcoxon graph method
Description: Acute toxicities (LD50) of PGFE,PGFE-4AC and PGFE-3A are measured by intravenous injections at a dose of 400 mg/kg to ten of ICR-JCL female mice (4 weeks age).
(§2) Acute toxicity (LD50) and abnormal tachycardia, respirogram and electrocardiogram by a biophysiograph were tested.
In the measurement of LD50, 10ICR-JCL female mice (4 week age) were used as one group. 0.2 ml of 50% ethanol-saline solution containing the drug of this invention was intravenously injected to the mice at several doses during 7 days to obtain their value of LD50 by Litchfield-Wilcoxon graph method.

[2] = tested on: ICR-JCL mice of the sixth day of pregnancy; test: Test of abortion by intravenous injection, 4 days (Table 3); type: in vivo; conditions: i.v. once a day
Description: as §1

ICR-JCL pregnant mice [3] = test: Side-effect test: tachycardia, respirogram and electrocardiogram by biophysiograph; type: in vivo; conditions: for tachycardia, respirogram and electrocardiogram compared with control: intravenous; for abnormal condition in tachycardia, respirogram and electrocardiogram: mice in pregnancy, before and after administration
Description: The tachycardia, respirogram and electrocardiogram of mice in pregnancy before and after the administration of PGF2 α, PGFE, PGFE-4AC and PGFE-3AC are tested by a biophysiograph 180-4(4ch) (manufactured by San-ei Sokuki K.K.).
as §2
Electrocardiogram was measured by a biophysiograph 180-4 (4 ch) (manufactured by San-ei Sokuki K.K.) for ICR-JCL pregnant mice (6th day) at 3 minutes after the administration of each sample.
In the test, 0.2 ml of 50% ethanol-saline solution was intravenously injected to the mice at a dose of 30γ per mouse. As the reference, the PGF2 α was also used as the sample (a dose of 15γ per mouse).
The results of the measurements are shown in FIGS. 2 to 5 wherein mV is given on ordinate and time (second) is given on abscissas and the chart speed was 250 mm/sec.

ICR-JCL pregnant mice [4] = test: Efficiency of abortion, summary in words of the tests in pregnant mice; type: in vivo; conditions: for efficiency of abortion compared with PGF2 α: intravenous and subcutaneous, 4 days; for abortion (in words): continuous administration during 4 days; for abortion effect in comparison with PGF2 α: suitable administrations and doses
Description: The efficiency of abortion of PGFE,PGFE-4AC and PGFE-3AC are tested as pharmacological effects in suitable administrations and doses by using ICR-JCL pregnant mice.
The continuous administrations were applied to ICR-JCL mice of the sixth day of pregnancy (5 mice as one group) to examine the efficiency of the abortion obtained by the drugs of this invention in comparison with that of PGF2 α. After 0.2 ml of 5% ethanol-saline solution containing the PGFE-3AC, the PGFE-4AC or PGF2 α was given to the mice once a day during 4 days by intravenous injection and subcutaneous injection at some dose, their breeding were continued to confirm the abortion of the group administrated with the drugs until the partus of the control group administrated with only ethanol saline solution.

rats (uterus) = test: Hysterotrimus and cardiac activity by intravenous injection to rats
estrogen receptor = test: Competitive receptor assay with 3H-estradiol in rabbit uterus; type: binding; conditions: for binding to the estrogen receptor: in accordance with the method of Example 1
Description: Binding function of estradiol and the PGFE to each uterus of rabbit were measured by the competitive receptor assay. Estradiol labelled by tritium (^3 H) was incubated with uterus of rabbit to bind it and then, estradiol or the PGFE was added to the system to measure the amount of free ^3 H-estradiol which was replaced by the added estradiol or the PGFE.

ICR-JCL pregnant mice [5] = test: Abortion test, intravenous injection once a day during 4 days (Table 1); type: in vivo; conditions: i.v. once a day
Description: The abortion was studied with ICR-JCL pregnant mice by the continuous administration of the drug during 4 days and the side-effect in the administration was also examined. After 0.2 ml of 50% ethanol-saline solution containing the PGFE at dose 10γ and 30γ/mouse or PGF2 α at dose 15γ/mouse(equimole of PGFE 30γ) was intravenously injected to the mice once a day during 4 days, their breedings were continued to confirm the abortion of the group administrated with the drugs until the partus of the control group administrated with only ethanol saline solution.

[6] = 30γ/mouse, 3 minutes after administration
[7] = in accordance with the method of Example 1

| Compound | Efficiency of abortion ([1]; 15 .tau./mouse) | Result of parturition (5 mice in group) ([1]; 15 .tau./mouse) | abnormality observed (ICR-JCL female mice) | survival of mice (acute toxicity) (ICR-JCL female mice) | LD50 (in words) (ICR-JCL female mice) | Efficiency of abortion ([2]; 2.5 .tau./mouse) | Result of parturition (5 mice in group) ([2]; 2.5 .tau./mouse) | Efficiency of abortion ([2]; 5.0 .tau./mouse) | Result of parturition (5 mice in group) ([2]; 5.0 .tau./mouse) | tachycardia, respirogram and electrocardiogram compared with control (ICR-JCL pregnant mice [3]; [6]) | abnormal condition in tachycardia, respirogram and electrocardiogram (ICR-JCL pregnant mice [3]) | efficiency of abortion compared with PGF2 α (ICR-JCL pregnant mice [4]) | abortion (in words) (ICR-JCL pregnant mice [4]; same dose as PGF2 α or less) | abortion effect in comparison with PGF2 α (ICR-JCL pregnant mice [4]) | hysterotrimus (rats (uterus); [7]) | binding to the estrogen receptor (estrogen receptor) | Efficiency of abortion ([1]; 30 .tau./mouse) | Result of parturition (5 mice in group) ([1]; 30 .tau./mouse) | further results |
| --- | --- | --- | --- | --- | --- | --- | --- | --- | --- | --- | --- | --- | --- | --- | --- | --- | --- | --- | --- |
| CCCCC[C@@H](/C=C/[C@@H]1[C@@H](C/C=C\CCCC(=O)OCC(=O)O[C@H]2CC[C@H]3[C@@H]4CCc5cc(O)ccc5[C@H]4CC[C@]23C)[C@@H](OC(C)=O)C[C@H]1OC(C)=O)OC(C)=O [PGFE-3AC, estra-1,3,5(10)-triene-3-hydroxy-17-oxycarbonylmethyl-9α,11α,15α-triacetoxy-5(cis)-13(trans)-prostadienoate] | 100% | 0 | any abnormality was not observed | all of the mice were survived | too high to be impossible to measure directly | 60% | 2 | 100% | 0 | substantially the same with those of the control | any abnormal condition is not observed | remarkably superior | satisfied results are obtained | greatly superior effect |  |  |  |  | survival of mice (acute toxicity) (ICR-JCL female mice; listed as PGFE-3A): All of mice (10) are survived; Efficiency of abortion ([2]; 1.0 .tau./mouse): 20%; Result of parturition (5 mice in group) ([2]; 1.0 .tau./mouse): 4 |
| CCCCC[C@H](O)/C=C/[C@@H]1[C@@H](C/C=C\CCCC(=O)OC2CC[C@H]3[C@@H]4CCc5cc(O)ccc5[C@H]4CC[C@]23C)[C@@H](O)C[C@H]1O (stereo partly shown) [Example 2] |  |  |  |  |  |  |  |  |  |  |  |  |  |  | cause hysterotrimus | bonded to the estrogen receptor |  |  |  |
| CCCCC[C@@H](/C=C/[C@@H]1[C@@H](C/C=C\CCCC(=O)OCC(=O)O[C@H]2CC[C@H]3[C@@H]4CCc5cc(OC(C)=O)ccc5[C@H]4CC[C@]23C)[C@@H](OC(C)=O)C[C@H]1OC(C)=O)OC(C)=O [PGFE-4AC, estra-1,3,5(10)-triene-3-acetoxy-17-oxycarbonylmethyl-9α,11α,15α-triacetoxy-5(cis)-13(trans)prostadienoate] | 100% | 0 | any abnormality was not observed | all of the mice were survived; also recorded: All of mice (10) are survived | too high to be impossible to measure directly | 40% | 3 | 100% | 0 | substantially the same with those of the control | any abnormal condition is not observed | remarkably superior | satisfied results are obtained | greatly superior effect |  |  | 100% | 0 |  |
| CCCCC[C@H](O)/C=C/[C@@H]1[C@@H](C/C=C\CCCC(=O)OCC(=O)O[C@H]2CC[C@H]3[C@@H]4CCc5cc(O)ccc5[C@H]4CC[C@]23C)[C@@H](O)C[C@H]1O [PGFE, estra-1,3,5(10)-triene-3-hydroxy-17-oxycarbonylmethyl-9α,11α,15α-trihydroxy-5(cis)-13(trans)prostadienoate] |  |  |  | All of mice (10) are survived |  |  |  |  |  |  | any abnormal condition is not observed |  | satisfied results are obtained | greatly superior effect |  |  |  |  | Effect of abortion (ICR-JCL pregnant mice [5]; 10 γ/mouse): 100%; Result of parturition (5 mice in group) (ICR-JCL pregnant mice [5]; 10 γ/mouse): 0; Effect of abortion (ICR-JCL pregnant mice [5]; 30 γ/mouse): 100%; Result of parturition (5 mice in group) (ICR-JCL pregnant mice [5]; 30 γ/mouse): 0; hysterotrimus (rats (uterus); 5 to 50γ (printed "5 L to 50γ"), intravenous, rats): gaved of the hysterotrimus; cardiac activity (rats (uterus); 50γ, intravenous, rats): the cardiac activity was in the normal condition; beginning of hysterotrimus in comparison with PGF2 α (rats (uterus); intravenous, rats): some delay in the beginning of hystrotrimus; side-effect (rats (uterus); up to 50γ, intravenous, rats): no side-effect was found; binding function to estrogen receptor (estrogen receptor; uterus of rabbit, displacement of 3H-estradiol, FIG. 1): has the binding function to estrogen receptor as the same with the estradiol itself |
| CCCCC[C@H](O)/C=C/[C@@H]1[C@@H](C/C=C\CCCC(=O)O)[C@@H](O)C[C@H]1O [PGF2 α, 9α,11α,15α-trihydroxy-5(cis)-13(trans)-prostadienoic acid, reference compound] | 0% | 5 |  |  |  | 0% | 5 | 0% | 5 |  | abnormal conditions are clearly observed |  |  |  |  |  | 20% | 4 | Efficiency of abortion ([2]; 15.0 .tau./mouse): 20%; Result of parturition (5 mice in group) ([2]; 15.0 .tau./mouse): 4; Effect of abortion (ICR-JCL pregnant mice [5]; 15 γ/mouse): 0%; Result of parturition (5 mice in group) (ICR-JCL pregnant mice [5]; 15 γ/mouse): 5; cardiac activity (rats (uterus); 5γ, intravenous, rats): cardiac stop was caused; hysterotrimus (rats (uterus); 5γ, intravenous, rats): gaved of the hysterotrimus; tachycardia, respirogram and electrocardiogram compared with control (ICR-JCL pregnant mice [3]; 15γ/mouse, 3 minutes after administration (FIG. 3)): abnormally different from those of the control; abortion (in words) (ICR-JCL pregnant mice [4]; 15α (4.24×10^-8 moles)/mouse): The abortion is incomplete |
| CCCCC[C@H](O)/C=C/[C@H]1[C@H](O)CC(=O)[C@@H]1C/C=C\CCCC(=O)OCC(=O)OCC(=O)[C@H]1CC[C@H]2[C@@H]3CCC4=CC(=O)CC[C@]4(C)[C@H]3CC[C@]12C [PGE2 P] |  |  |  |  |  |  |  |  |  |  |  |  |  |  | cause hysterotrimus | bonded to the estrogen receptor |  |  |  |
